Test system: unidentified influenza virus
Assay: Compound was tested for inhibition of Influenza neuraminidase
Type: functional, organism-based

Row | SMILES | Ki
1 | CC(=O)N[C@H]1[C@H]([C@H](O)[C@H](O)CO)O[C@@](OC[C@@H]2O[C@H](O)[C@@H](O)[C@@H](O)[C@H]2O)(C(=O)O)C[C@H]1N | 150 µM
2 | CC(=O)NC1C(N)CC(SC(C)C2OC(O)C(O)C(O)C2O)(C(=O)O)OC1[C@H](O)[C@H](O)CO (some centres not stated) | 50 µM
